The experiment has as its target T1, hSTING c-terminal domain (purified hSTING aa154-342) (Homo sapiens, UniProt Q86WV6).
T1 construct: Purified hSTING (aa154-342)
As to the kind of experiment: Thermal shift assay for measuring the relative binding affinity to hSTING c-terminal domain. The note with it: Tm of sample minus mean Tm of negative control (buffer, 2% DMSO), SYPRO Orange. On the procedure:
Test Example 1. Thermal Shift Assay for Measuring the Relative Binding Affinity to hSTING c-Terminal Domain
From each of the 10 mM stock solutions of compounds in DMSO, dilutions are made to create samples with three concentrations 10 mM, 5 mM and 2.5 mM. From these dilutions a final 50 fold dilution is made into assay buffer, giving concentrations of 200 μM, 100 μM, and 50 μM. From each of the buffer dilutions, 5 μL is added to the 384 well assay plate. A positive control is setup with cGAMP using the same dilution scheme as the ligands. A baseline thermal shift for the negative control is determined using buffer and 2% DMSO.
An aliquot of protein is thawed on ice and SYPRO orange reagent is brought to room temperature. The 5000× SYPRO orange stock is diluted in assay buffer to a concentration of 10×. Protein is diluted to a concentration of 10 μM in the prepared buffer/dye solution. Five micro-liters of protein/buffer/dye solution is added to each of the sample and control wells, and the plate is sealed with the provided films. The plate is centrifuged for 5 min at 20° C. at 1000 rpm.
On the Light Cycler instrument, measurements are made over a temperature gradient from 20° C. to 99° C. at 0.07° C./s and data acquisitions collected at a rate of 8/° C. is used to measure the change in fluorescence as a function of temperature. Data analysis is performed using the Roche Light Cycler Software to determine the melting temperature (Tm ° C.) of each sample. A mean Tm ° C. for the negative control is calculated and subtracted from each of the samples to generate the ΔTm ° C. values for each of the ligands.
The relative binding affinity to hSTING c-terminal domain of the compounds of the present invention was determined by the above assay, and ΔTm ° C. values are shown in the following table 1.
T1 sequence (Q86WV6 154-342): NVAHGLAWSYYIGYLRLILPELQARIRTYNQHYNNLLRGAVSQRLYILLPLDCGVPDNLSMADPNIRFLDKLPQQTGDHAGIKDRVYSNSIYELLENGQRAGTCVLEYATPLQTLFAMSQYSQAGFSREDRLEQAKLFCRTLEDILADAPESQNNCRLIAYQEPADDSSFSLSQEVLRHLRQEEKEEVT
For orientation: ΔTm means the change in melting temperature against a reference sample. `CCn1nc(C)cc1C(=O)Nc1nc2cc(C(N)=O)cc3c2n1[C@@H](CCCNC(=O)OCc1ccccc1)CO3` [Example 4, (S)-benzyl (3-(7-carbamoyl-2-(1-ethyl-3-methyl-1H-pyrazole-5-carboxamido)-3,4-dihydro-5-oxa-1,2a-diazaacenaphthylen-3-yl)propyl)carbamate]: the ΔTm at 100 µM was 4.6 °C.

For `CCn1nc(C)cc1C(=O)Nc1nc2cc(C(N)=O)cc3c2n1[C@@H](CC(O)CO)CO3` (stereo partly drawn) [Example 9, (3S)-3-(2,3-dihydroxypropyl)-2-(1-ethyl-3-methyl-1H-pyrazole-5-carboxamido)-3,4-dihydro-5-oxa-1,2a-diazaacenaphthylene-7-carboxamide], the thermal shift (ΔTm) at 100 µM is -0.1 °C.

For the compound `C=CC[C@@H]1COc2cc(C(N)=O)cc3nc(NC(=O)c4cc(C)nn4CC)n1c23` [Example 6, (R)-3-allyl-2-(1-ethyl-3-methyl-1H-pyrazole-5-carboxamido)-3,4-dihydro-5-oxa-1,2a-diazaacenaphthylene-7-carboxamide], the ΔTm at 100 µM was -0.5 °C.

For the compound `CCC[C@H]1COc2cc(C(N)=O)cc3nc(NC(=O)c4cc(C)nn4CC)n1c23` [Example 7, (S)-2-(1-ethyl-3-methyl-1H-pyrazole-5-carboxamido)-3-propyl-3,4-dihydro-5-oxa-1,2a-diazaacenaphthylene-7-carboxamide], the ΔTm at 100 µM came to 5.4 °C.

Consider `CCn1nc(C)cc1C(=O)N(C)c1nc2cc(C(N)=O)cc3c2n1CCO3` [Example 3, 2-(1-ethyl-N,3-dimethyl-1H-pyrazole-5-carboxamido)-3,4-dihydro-5-oxa-1,2a-diazaacenaphthylene-7-carboxamide], for which the thermal shift (ΔTm) at 100 µM turned out to be 0.7 °C.

For the compound `CCn1nc(C)cc1C(=O)Nc1nc2cc(C(N)=O)cc(OC)c2n1CCCCC1COc2cc(C(N)=O)cc3nc(NC(=O)c4cc(C)nn4CC)n1c23` (stereo in doubt) [Example 16, (S)-3-(4-(5-carbamoyl-2-(1-ethyl-3-methyl-1H-pyrazole-5-carboxamido)-7-methoxy-1H-benzo[d]imidazol-1-yl)butyl)-2-(1-ethyl-3-methyl-1H-pyrazole-5-carboxamido)-3,4-dihydro-5-oxa-1,2a-diazaacenaphthylene-7-carboxamide], the thermal shift (ΔTm) at 100 µM amounted to 1 °C.

Consider `CCn1nc(C)cc1C(=O)Nc1nc2cc(C(N)=O)cc3c2n1CCO3` [Example 2, 2-(1-ethyl-3-methyl-1H-pyrazole-5-carboxamido)-3,4-dihydro-5-oxa-1,2a-diazaacenaphthylene-7-carboxamide], for which the ΔTm at 100 µM amounted to 1.1 °C.

For the compound `CCn1nc(C)cc1C(=O)Nc1nc2cc(C(N)=O)cc(OC)c2n1CCCNCCC1COc2cc(C(N)=O)cc3nc(NC(=O)c4cc(C)nn4CC)n1c23` (centres unmarked) [Example 17, 3-(2-((3-(5-carbamoyl-2-(1-ethyl-3-methyl-1H-pyrazole-5-carboxamido)-7-methoxy-1H-benzo[d]imidazol-1-yl)propyl)amino)ethyl)-2-(1-ethyl-3-methyl-1H-pyrazole-5-carboxamido)-3,4-dihydro-5-oxa-1,2a-diazaacenaphthylene-7-carboxamide], the ΔTm at 100 µM turned out to be 2 °C.

For the origin of these results see patent publication US11535633B2, “Fused tricyclic heterocycle compounds and therapeutic uses thereof” (Jiangsu Hengrui Medicine Co., Ltd., priority 2018, dated 2022).
